Assay results: US8183230B2, “Antimicrobial preservatives to achieve multi-dose formulation using beta-cyclodextrins for liquid dosage forms” (priority 2004, dated 2012)
“Also recorded” adds a separate entry of the source. Read-outs that look alike come from different tables or passages of the source.

What was measured:
[1] = Stability measurements (accelerated stability); details: for ACCEPTABLE STABILITY: 10 mgA/mL compound of Formula Ia
Method: Stability Measurements. Potential lead formulations were evaluated under various accelerated stability conditions in order to assess potency and purity of compound of Formula Ia, preservative content and SBE-CD content. For example, in one accelerated stability study, potential lead formulations were placed in stability ovens to measure short-term thermal stability. […] Purity and potency assays to measure compound of Formula Ia, as well as antimicrobial preservatives and SBE-CD content, were performed using validated HPLC methodology. SBE-CD was assayed using GTP 5984.

[2] = test system: Escherichia coli, Pseudomonas aeruginosa, Staphylococcus aureus, Candida albicans, Aspergillus niger; details: as indicated by literature; cited from earlier work
[3] = for IST: Study A, compound of Formula Ia at 10 mgA/mL
Method: Injection site toleration was measured by inspecting the patient for signs of reaction, including erythema (size); skin thickening (size), pain on palpation and edema. Table VI provides a detailed explanation of the scoring system: a score of 0 (no reaction) to 4 (severe reaction) was given for each characteristic and each injection site daily.
Compound of Formula Ia formulations were evaluated for injection site toleration (hereinafter “IST”).
Formulations were tested in groups of 4 dogs comprised of beagles and mongrels. […] Dogs were observed daily for evidence of reaction at the injection site and a score of 0-4 (see Table VI) was given for each of the following parameters: pain on injection, erythema, tissue thickening, pain on palpation and edema. Dogs were observed daily until day 5 (24 hours after the last dose).

[4] = test system: Escherichia coli, Pseudomonas aeruginosa, Staphylococcus aureus, Candida albicans, Aspergillus niger; experiment: Hybrid USP/Ph. Eur. antimicrobial effectiveness test (AET); format: cell-based; details: for AET Results Ph. Eur. Criteria A: Study A, compound of Formula Ia at 10 mgA/mL, cells without ✓ print organism (time point); for USP/Ph. Eur. requirements (initial results of preliminary screen): multidose compound of Formula Ia formulation with SBE-CD; for Ph. Eur. criteria B: leads of Study B
Method: Preparation of Preserved Formulations. […] Antimicrobial preservatives with optimal activity at a pH outside the nominal formulation value (pH 4.4) were titrated to either 3.5 or 5.0 using 1 N HCl or 1 N NaOH. A stock solution of either 10% or 5% (weight/volume) SBE-CD containing 10 mgA/mL of the compound of Formula Ia citrate was prepared. Preservative was added to the respective formulation on a weight basis.
Antimicrobial Efficacy Testing. A hybrid USP […]/Ph. Eur. 2000 antimicrobial effectiveness test (AET) was performed, as follows: 20 mL of drug product was individually inoculated with 0.1-0.2 mL of bacterial or fungal culture, per USP/Ph. Eur. compendial requirements. The final concentration of organisms in the test sample was between 1×10^5 and 1×10^6 cfu/mL. At initial 6 hr, 24 hr, 7 day, 14 day, and 28 day time intervals, 1 mL of the inoculated product was transferred into 9 mL of a recovery diluent, that was validated to confirm neutralization of the antimicrobial preservative. One mL of the diluted sample was then transferred to a sterile petri dish and combined with 15-20 mL of an agar broth to culture the organisms. Plates were then incubated for 3 to 5 days, upon which colonies were counted. Initial organism contamination was then calculated based on dilution of the initial sample.
Generally, the USP test requirements are less stringent than Ph. Eur. requirements, which typically have an immediate bacteriocidal activity requirement. The Ph. Eur. requirements shown in Table III have either a “Criteria A” or “Criteria B” specification depending on the rate of microorganism reduction, with criteria A requiring an increased bacteriocidal rate. In order to meet the combined hybrid assay, the initial inoculum count of microorganisms needed to be reduced by the amounts listed in Table V.

[5] = pH: 4.4, SBE-CD: 5%, ethanol 15%
[6] = pH: 4.4, SBE-CD: 10%, content: ethanol 15%, meta-cresol 0.3%, propylene glycol 50%, thimerosal 0.01
[7] = preserved compound of Formula Ia/SBE-CD formulations
[8] = compound of Formula Ia formulations solubilised with cyclodextrin
[9] = pH: 4.2, SBE-CD: 10%, preservative content 0.2%

CCO [Ethanol]
ACCEPTABLE STABILITY ([1]; pH 4.4, 5% SBE-CD): ✓ | USP and Ph. Eur. criteria A or B requirements [2]: met both the USP and either Ph. Eur. criteria A or B requirements | IST [3, 5]: Poor | IST [3, 6]: Poor | AET Results Ph. Eur. Criteria A [4, 5]: a. niger (7 d) | AET Results Ph. Eur. Criteria A [4, 6]: s. aur (6 hr) | USP/Ph. Eur. requirements (initial results of preliminary screen) [4]: satisfied USP/Ph. Eur. requirements

C[CH2][Hg][S]c1ccccc1C(=O)[O-].[Na+] [Thimerosal]
stability in the formulation (in words) [1]: commercially undesirable | Stability ([1]; Study A, pH: 4.4, SBE-CD: 10%, thimerosal 0.01, compound of Formula Ia at 10 mgA/mL): 1 wk/70 | preservative remained in the formulation ([1]; after 1 week at 70° C. storage): 30% | loss of preservative ([1]; after 6 weeks, 70° C. storage): complete loss | USP and Ph. Eur. criteria A or B requirements [2]: met both the USP and either Ph. Eur. criteria A or B requirements | IST [3, 6]: Good | injection site toleration [3, 7]: good injection site toleration | Ph. Eur. criteria B [4]: met criteria B | USP/Ph. Eur. requirements (initial results of preliminary screen) [4]: satisfied USP/Ph. Eur. requirements

2-hydroxypropyl-β-cyclodextrin
injection site toleration [3, 8]: acceptable injection site toleration

Sulfobutylether-βcyclodextrin [SBE-CD]
injection site toleration [3, 8]: acceptable injection site toleration

O=C(O)c1ccccc1 [Benzoic acid, Benzoic Acid]
loss of preservative ([1]; over 12 weeks at 70° C. storage): no detectable loss | ACCEPTABLE STABILITY ([1]; pH 4.2, 10% SBE-CD): ✓ | USP and Ph. Eur. criteria A or B requirements [2]: met both the USP and either Ph. Eur. criteria A or B requirements | IST [3, 9]: Poor | pain on injection ([3]; preserved compound of Formula Ia formulation): moderate to severe pain on injection | injection site toleration [3, 7]: poor IST results | AET Results Ph. Eur. Criteria A [4, 9]: c. alb (7 d); also recorded: s. aur (6, 24 hr) | reducing the microorganisms ([4]; after 7 days): ineffective | Ph. Eur. criteria B [4]: met criteria B

CC(O)CO (stereo not shown) [Propylene glycol]
USP and Ph. Eur. criteria A or B requirements [2]: met both the USP and either Ph. Eur. criteria A or B requirements | activity against the fungi [4]: ineffective against the fungi | USP/Ph. Eur. requirements (initial results of preliminary screen) [4]: satisfied USP/Ph. Eur. requirements | activity against bacteria ([4]; with and without SBE-CD): active against bacteria only in the presence of SBE-CD
